Measurements: patent US9441012B2, “Fluorinated epoxyketone-based compounds and uses thereof as proteasome inhibitors” (FLUORINOV PHARMA INC., priority 2012, dated 2016)

Tests used:
Assay in all cases: NCI 60 human tumor cell line screen (SRB)
Assay type in all cases: cell-based
T-47D = T-47D (Breast Cancer); 48 h
NCI-H460 = NCI-H460 (Non-Small Cell Lung Cancer); 48 h
OVCAR-5 = OVCAR-5 (Ovarian Cancer); 48 h
Method in brief: (§1)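 Cells plated 24 h before dosing, with time-zero plates TCA-fixed at drug addition; five concentrations (10-fold or ½-log dilutions) added and incubated 48 h at 37 °C, 5% CO2. Adherent cells fixed with 10% TCA, stained with 0.4% SRB, absorbance read at 515 nm; GI50, TGI and LC50 derived from percentage growth versus time zero and control.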

SNB-75 = SNB-75 (CNS Cancer); 48 h
Method in brief: as §1

HCT-15 = HCT-15 (Colon Cancer); 48 h
Method in brief: as §1

RXF 393 = RXF 393 (Renal Cancer); 48 h

Compound	Log10GI50 (T-47D)	Log10TGI50 (T-47D)	Log10GI50 (NCI-H460)	Log10LC50 (NCI-H460)	Log10TGI50 (NCI-H460)	Log10GI50 (OVCAR-5)	Log10LC50 (OVCAR-5)	Log10TGI50 (OVCAR-5)	Log10GI50 (SNB-75)	Log10LC50 (SNB-75)	Log10TGI50 (SNB-75)	Log10GI50 (HCT-15)	Log10LC50 (HCT-15)	Log10TGI50 (HCT-15)	Log10GI50 (RXF 393)	Log10LC50 (RXF 393)	Log10TGI50 (RXF 393)
CC(C)C[C@H](NC(=O)[C@H](Cc1ccccc1)NC(=O)[C@H](COC(F)F)NC(=O)CN1CCOCC1)C(=O)[C@@]1(C)CO1 [Example 25, (2S)-2-[[(2S)-3-(difluoromethoxy)-2-[(2-morpholinoacetyl)amino]propanoyl]amino]-N-[(1S)-3-methyl-1-[(2R)-2-methyloxirane-2-carbonyl]butyl]-3-phenyl-propanamide]	−7.78	−7.46	−7.21	−4.13	−6.43	−7.36	>−4.00	−6.44	−7.71	−6.35	−7.24	−6.47	>−4.00	>−4.00	−7.64	−6.70	−7.25
C[C@]1(C(=O)[C@H](Cc2ccccc2)NC(=O)[C@H](Cc2ccccc2)NC(=O)[C@H](COC(F)F)NC(=O)CN2CCOCC2)CO1 [Example 29]	−7.16	−6.62	−6.49	>−4.00	−5.87	−6.65	>−4.00	−5.58	−6.83	−5.96	−6.41	−6.20	>−4.00	>−4.00	−7.20	−6.31	−6.70
Cc1ncc(C(=O)N[C@@H](COC(F)F)C(=O)N[C@@H](COC(F)F)C(=O)N[C@@H](Cc2ccccc2)C(=O)[C@@]2(C)CO2)s1 [Example 1, 2-methyl-thiazole-5-carboxylic acid ((S)-1-{(S)-1-[(S)-1-benzyl-2-((R)-2-methyloxiranyl)-2-oxo-ethylcarbamoyl]-2-difluoromethoxyethylcarbamoyl}-2-difluoromethoxyethyl)-amide]	−6.59	>−4.00	−6.48	−5.12	−5.84	−6.18	−4.17	−5.30	−6.81	>−4.00	−6.24	−5.65	−4.16	−4.93	−6.79	−6.02	−6.41
C[C@]1(C(=O)[C@H](Cc2ccccc2)NC(=O)[C@H](COC(F)F)NC(=O)[C@H](COC(F)F)NC(=O)CN2CCOCC2)CO1 [Example 26, (S)-N-{(S)-1-[(S)-1-Benzyl-2-((R)-2-methyl-oxiranyl)-2-oxo-ethylcarbamoyl]-2-difluoromethoxyethyl}-3-difluoromethoxy-2-(2-morpholin-4-yl-acetylamino)-propio-namide]	−7.78	−7.46	−7.21	−4.13	−6.43	−7.36	>−4.00	−6.44	−7.71	−6.35	−7.24	−6.47	>−4.00	>−4.00	−7.64	−6.70	−7.25
